According to patent US6855507B2, “Method of screening for pharmaceuticals by detecting cross talk between intracellular signals and intranuclear receptors” (Chugai Seiyaku Kabushiki Kaisha, priority 1998, dated 2005):

Tested on: VDR and Smad3
Assay: GST-pull down analysis of VDR and Smad3 interaction (cell-free)
Assay type: binding
Conditions: FIG. 5
Description: GST fused Smad3 or VDR (full length peptide 1-424, partial peptides: amino acid sequence 115-424, 115-357, 115-300 and others, see FIG. 4) fused proteins (GST-Smad3 or GST-VDR) were expressed by using E.coli, and were captured on beads with glutatione-Sepharose bead (Pharmacia) to accomplish affinity purification. On the other hand, ^35S-methionine-labeled Smad3 and VDR were prepared in cell-free system by using reticulocyte lysate translation system (Promega). GST-Smad3 or GST-VDR fixed on beads described above was incubated with ^35S-methionine labeled VRD or Smad3. By using polyacrylamide gel electrophoresis, ^35S-methionine labeled VDR or Smad3 were analyzed.

## C=C1/C(=C\C=C2/CCC[C@]3(C)[C@@H]([C@H](C)CCCC(C)(C)O)CC[C@@H]23)C[C@@H](O)C[C@@H]1O [1,25(OH)2VD3]
1 nM
  binding of full length VDR to Smad3 in the presence of ligand: slightly bound
  ligand requirement of binding of VDR partial peptides 115-357 and 115-300 to Smad3: did not require
